Experimental data taken from ChEMBL document CHEMBL1201862, “PubChem BioAssay data set” (2004).
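1) Cells in 96-well plates. 2) Compound, 48 h, 5 concentrations. 3) Linear interpolation between surrounding doses. 4) Unreached endpoint = highest concentration. The concentration for 50% growth inhibition is given as GI50.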 Activity calls are given as the source filed them. Cut-off read from the data, not from the text of the source: active = GI50 up to about 1.1 µM and inactive = higher.

Key:
Assay in all cases: NCI tumour cell line growth inhibition, 48 h
[1] = test system: M19-MEL
[2] = test system: LXFL 529
[3] = test system: HOP-18
[4] = test system: DMS-114
[5] = test system: KM-20L2
[6] = test system: SNB-78
[7] = test system: DMS-273
[8] = test system: RXF 631
[9] = test system: XF498

SMILES	GI50 [1]	GI50 [2]	GI50 [3]	GI50 [4]	GI50 [5]	GI50 [6]	GI50 [7]	GI50 [8]	GI50 [9]
O=C1Cc2ccccc2CCc2ccccc21	> 100 µM (inactive)	> 100 µM (inactive)	> 100 µM (inactive)	47 µM (inactive)	> 100 µM (inactive)	> 100 µM (inactive)	> 100 µM (inactive)	–	–
CC1=NN(c2ccccc2)C(=O)/C1=C\c1ccc([N+](=O)[O-])cc1	–	32.1 µM (inactive)	< 0.01 µM (active)	20.8 µM (inactive)	22.8 µM (inactive)	28.4 µM (inactive)	25 µM (inactive)	29.5 µM (inactive)	16.6 µM (inactive)
C=C1CCC2(C(C)=O)COC1(C)O2 (stereo not given)	> 100 µM (inactive)	–	> 100 µM (inactive)	> 100 µM (inactive)	–	–	> 100 µM (inactive)	–	62.2 µM (inactive)
O=C(c1ccccc1)c1ccc(OCCOc2ccc(Nc3ccccc3)cc2)cc1	70.3 µM (inactive)	41.1 µM (inactive)	65.5 µM (inactive)	6.84 µM (inactive)	> 100 µM (inactive)	35.2 µM (inactive)	> 100 µM (inactive)	17.7 µM (inactive)	16.1 µM (inactive)
O=[N+]([O-])c1ccc(-c2ccc(C3=Nn4c(nnc4-c4ccc(Cl)cc4)SC3)o2)cc1	> 100 µM (inactive)	> 100 µM (inactive)	> 100 µM (inactive)	> 100 µM (inactive)	> 100 µM (inactive)	–	67.9 µM (inactive)	> 53.3 µM (inactive)	24.9 µM (inactive)
O=C1c2ccccc2C(=O)C12CCc1ccccc12	> 100 µM (inactive)	> 100 µM (inactive)	> 100 µM (inactive)	> 100 µM (inactive)	> 100 µM (inactive)	> 100 µM (inactive)	> 100 µM (inactive)	> 100 µM (inactive)	> 100 µM (inactive)
C/C(CCc1ccccc1)=N\NC(N)=S	74.8 µM (inactive)	43 µM (inactive)	> 100 µM (inactive)	39 µM (inactive)	> 100 µM (inactive)	> 100 µM (inactive)	> 100 µM (inactive)	> 100 µM (inactive)	43.4 µM (inactive)
CCOC(=O)NC(=O)c1cn(-c2ccc(CCOC(=O)CCCCCCCCC(=O)OCCc3ccc(-n4cc(C(=O)NC(=O)OCC)c(=O)[nH]c4=O)cc3)cc2)c(=O)[nH]c1=O	> 100 µM (inactive)	> 100 µM (inactive)	> 100 µM (inactive)	> 100 µM (inactive)	> 100 µM (inactive)	> 100 µM (inactive)	–	> 100 µM (inactive)	> 100 µM (inactive)
Cn1cc(NC(=O)c2cc(NC(=O)CCCCCCCCCC(=O)Nc3cc(C(=O)Nc4cc(C(=O)NCCC(=N)N)n(C)c4)n(C)c3)cn2C)cc1C(=O)NCCC(=N)N	34.1 µM (inactive)	24.5 µM (inactive)	35.3 µM (inactive)	84.9 µM (inactive)	31.2 µM (inactive)	37.2 µM (inactive)	33.2 µM (inactive)	–	32.9 µM (inactive)
O=c1ncccn1C1C=C(CO)C(O)C1O (stereo not given)	–	> 50 µM (inactive)	> 50 µM (inactive)	> 50 µM (inactive)	> 50 µM (inactive)	> 50 µM (inactive)	> 50 µM (inactive)	–	> 50 µM (inactive)
CC1=C(NC(=O)/C(=N/NC(=S)NN)C2C(=O)CC(C)(C)CC2=O)C(=O)c2ccccc2C1=O	1.33 µM (inactive)	11.4 µM (inactive)	15.7 µM (inactive)	2.12 µM (inactive)	11.4 µM (inactive)	15.2 µM (inactive)	6.21 µM (inactive)	7.8 µM (inactive)	14.9 µM (inactive)
N#C/C(=C\c1ccccc1)C(NO)Nc1ccccc1 (stereo not given)	> 100 µM (inactive)	60.3 µM (inactive)	> 100 µM (inactive)	–	> 100 µM (inactive)	83.2 µM (inactive)	> 100 µM (inactive)	–	–
Oc1ccc(-c2c3ccccc3c(-c3ccc(O)cc3)c3ccccc23)cc1	> 100 µM (inactive)	91.6 µM (inactive)	> 100 µM (inactive)	> 100 µM (inactive)	> 100 µM (inactive)	> 100 µM (inactive)	> 100 µM (inactive)	–	> 100 µM (inactive)
O=C1Oc2cc3c(c4cccc1c24)OCN(c1ccccc1)C3	38.8 µM (inactive)	38.6 µM (inactive)	–	38.1 µM (inactive)	> 100 µM (inactive)	–	> 100 µM (inactive)	–	> 100 µM (inactive)
O=C(c1nc2ccccc2nc1O)C(O)c1ccccc1 (stereo not given)	90.8 µM (inactive)	50.2 µM (inactive)	–	48.6 µM (inactive)	46.5 µM (inactive)	> 100 µM (inactive)	60.3 µM (inactive)	–	–
CCOC(=O)CSc1nnc(C(Sc2nc(-c3ccccc3)c(-c3ccccc3)[nH]2)C(C)C)n1-c1ccccc1 (stereo not given)	> 10 µM (inactive)	> 10 µM (inactive)	–	> 10 µM (inactive)	> 10 µM (inactive)	> 10 µM (inactive)	> 10 µM (inactive)	–	–
COc1c(CC(C)=O)c2ccccc2n1C(C)=O	> 100 µM (inactive)	> 100 µM (inactive)	> 100 µM (inactive)	–	> 100 µM (inactive)	> 100 µM (inactive)	> 100 µM (inactive)	> 100 µM (inactive)	> 100 µM (inactive)
COC1C2c3ccccc3C(C#N)(Cc3ccc4c(c32)OCO4)N1C(=O)c1ccccc1 (stereo not given)	–	46 µM (inactive)	80.7 µM (inactive)	19.6 µM (inactive)	43.1 µM (inactive)	47.8 µM (inactive)	5.65 µM (inactive)	> 100 µM (inactive)	21.3 µM (inactive)
C/C(CC(=O)Nc1cccc(Cl)c1C)=N\NC(N)=S	> 100 µM (inactive)	> 100 µM (inactive)	–	–	> 100 µM (inactive)	> 100 µM (inactive)	–	> 100 µM (inactive)	> 100 µM (inactive)
CCOP12(OCC)NC(=O)OC1(C(F)(F)F)c1ccccc1O2 (stereo not given)	> 100 µM (inactive)	> 100 µM (inactive)	> 100 µM (inactive)	> 100 µM (inactive)	–	> 100 µM (inactive)	> 100 µM (inactive)	–	–
C#CCSc1nc(N)c2ncn(C3OC(CO)C(O)C3O)c2n1 (stereo not given)	> 100 µM (inactive)	> 100 µM (inactive)	–	> 100 µM (inactive)	–	> 100 µM (inactive)	> 100 µM (inactive)	–	> 100 µM (inactive)
CN(CCO)c1nc(N)cc(=O)[nH]1	> 100 µM (inactive)	> 100 µM (inactive)	> 100 µM (inactive)	> 100 µM (inactive)	> 100 µM (inactive)	> 100 µM (inactive)	> 100 µM (inactive)	–	> 100 µM (inactive)
NNC(=O)CCC(=O)Nc1cc(Cl)c(Cl)cc1Cl	> 100 µM (inactive)	> 100 µM (inactive)	–	> 100 µM (inactive)	> 100 µM (inactive)	> 100 µM (inactive)	> 100 µM (inactive)	> 100 µM (inactive)	> 100 µM (inactive)
Cc1ccc(NC(=O)CC2C(=O)Nc3ccccc3S2(=O)=O)c(C)c1 (stereo not given)	–	16.7 µM (inactive)	–	15 µM (inactive)	13.8 µM (inactive)	18.1 µM (inactive)	10.7 µM (inactive)	–	14.8 µM (inactive)
O=S(O)CCCCCSSCCCCSSCCCCCS(=O)O	> 100 µM (inactive)	79.6 µM (inactive)	> 100 µM (inactive)	> 100 µM (inactive)	> 100 µM (inactive)	> 100 µM (inactive)	> 100 µM (inactive)	> 100 µM (inactive)	46.8 µM (inactive)
CC1C[C@H](OC(N)=O)C(C)CC1=O (stereo not given in full)	> 100 µM (inactive)	> 100 µM (inactive)	> 100 µM (inactive)	> 100 µM (inactive)	> 100 µM (inactive)	> 100 µM (inactive)	> 100 µM (inactive)	–	> 100 µM (inactive)
C[C@@H]1C[C@@H](O)[C@]2(O)O[C@@H]3C[C@@]4(C=O)[C@@H](CC[C@@H]5[C@@H]4CC[C@]4(C)[C@@H](C6=CC(=O)OC6)CC[C@]54O)C[C@H]3O[C@@H]2O1 [CALACTIN]	0.0206 µM (active)	0.00501 µM (active)	0.0042 µM (active)	0.00141 µM (active)	0.0182 µM (active)	0.0106 µM (active)	0.00455 µM (active)	–	0.0159 µM (active)
